Test system: histamine H2 -receptors
Test: Heidenhain pouch dog: inhibition of histamine-stimulated acid secretion
Assay type: in vivo
Settings: intravenous administration; dose levels adjusted to produce similar peak responses

Nc1c(NCCCOc2cc(CN3CCCCC3)ccn2)c(=O)c1=O [Example 1, 1-[3-[4-(Piperidinomethyl)pyrid-2-yloxy]prop-1-ylamino]-2-aminocyclobut-1-ene-3,4-dione]
duration of action relative to cimetidine: significant increase in duration of action
